Measured values taken from PubChem BioAssay AID1963839 (Molecular Pharmacology Branch, DTP, NCI, 2024).
Several values for one entry are separate records, joined by “and”; a condition that tells them apart may be missing. Identical values can stand only once.

System: 817829-284-R-J1-PDC complex spheroid viability
Experiment: Anticancer human tumor 817829-284-R-J1-PDC patient-derived colon adenocarcinoma cell line growth inhibition [POLQ]
Settings: for viability, T/C: stronger effect = lower value; active = viability on the fitted dose curve at most 10% of control; inactive = the rest
Method: Multicellular complex tumor spheroid response to Polymerase (POL) inhibitors (novobiocin, ART-558, RP6685) in combination with a variety of drugs and investigational agents in selected tumor cell lines
The POL inhibitors (novobiocin, ART-558, and RP6685) were evaluated both individually and in combination with standard of care and investigational anticancer small molecules within a complex spheroid model of solid tumors. . Complex spheroids include a stromal component modeled by human endothelial cells (HUVEC) and fibroblasts modeled by human mesenchymal stem cells (MSCs). The concentration ranges selected for each drug and investigational agent were based upon clinically achievable concentrations if the clinical Cmax of the agent was known.
Compounds. The drugs and investigational agents: novobiocin (NSC847541), ART-558 (NSC835418), RP-6685 (NSC848927), peposertib (NSC802822), ceralasertib (NSC780249), elimusertib (NSC800525), camonsertib (NSC841442), AZD-1390 (NSC803789), olaparib (NSC753686), talazoparib (NSC767125), rucaparib (NSC756644), sotorasib (NSC818433), MRTX-1133 (NSC836407), SN-38 (NSC673596), topotecan (NSC609699), epotoside (NSC141540), doxorubicin (NSC123127), gemcitabine (NSC613327), 5-fluorouracil (NSC19893), paclitaxel (NSC125973), vemurafenib (NSC761431), MSA-2 (NSC828583), SN-011 (NSC837082), adavosertib (NSC754352), prexasertib (NSC758257), carboplatin (NSC241240) and oxaliplatin (NSC266046), were obtained from the National Cancer Institute (NCI) Developmental Therapeutics Program Chemical Repository (21). The FDA-approved anticancer drug set is available from the Developmental Therapeutics Program at https://dtp.cancer.gov/organization/dscb/obtaining/. […] The stock solutions were prepared in dimethyl sulfoxide (DMSO, Sigma-Aldrich, St. Louis, MO, cat. D2650), except for the platinum compounds which were prepared in saline (Quality Biological, Gaithersburg, MD, cat. 114-055-101), at 800-fold the tested concentration and stored at -70 degrees C prior to their use. All drugs and investigational agents were tested over a range starting from a high concentration at or near the clinical Cmax and decreasing in half-log increments. If the clinical Cmax for an agent had not been determined, the highest concentration tested was 10 microM, except for SN-38, which was tested at a high concentration of 1 microM.
Cell Culture. All cells were maintained in an incubator at 37 degrees C and 5% CO2 with 95% humidity. The PDC lines were cultured according to standard operating procedures established by the NCI PDMR (https://pdmr.cancer.gov). Table 3 of the manuscript, lists the cell lines along with the number of the three cell types plated to form the mct-spheroids and media for tumor cell growth. After thawing, all PDC lines, except 997537-175-T-J1-PDC and 415267-285-R-J2-PDC, were cultured in Matrigel-coated flasks prepared with a working solution of 1X Ham's F-12 nutrient mix, without supplementation (Thermo Fisher Scientific, cat. 11765054), 100 U/mL penicillin-streptomycin (Thermo Fisher Scientific, cat. 15140122), and 2.5% Matrigel (Corning Inc., Corning, NY, cat. 354248) for the first three passages. The two PDC lines 997537-175-T-J1-PDC and 415267-285-R-J2-PDC were cultured on uncoated flasks. The 857933-349-R-J2-PDC line was cultured in 6C/Colon 1B media containing advanced DMEM/F-12 (Thermo Fisher Scientific, cat. 12634028), 10 mM HEPES (Thermo Fisher Scientific, cat. 15630080), 1X GlutaMAX supplement (Thermo Fisher Scientific, cat. 35050061), 0.1 mg/mL primocin (InvivoGen, San Diego, CA, cat. ant-pm-2), 10% defined fetal bovine serum, heat inactivated (HyClone Laboratories Inc., Logan, UT, cat. SH30070.03HI), 50% L-WRN conditioned media (ATCC, cat. CRL-3276), 1.25 mM N-Acetyl-L-cysteine (Sigma-Aldrich, cat. A9165), 10 mM nicotinamide (Sigma-Aldrich, cat. N0636), 1X B-27 supplement (Thermo Fisher Scientific, cat. 17504044), 1X N-2 supplement (Thermo Fisher Scientific, cat. […]

[1] = curve of first compound, second compound 0.0316 µM
[2] = curve of first compound, second compound 0.1 µM
[3] = curve of first compound, second compound 0.316 µM
[4] = curve of first compound, second compound 1 µM
[5] = curve of first compound, second compound 3.16 µM
[6] = curve of first compound, second compound 10 µM
[7] = second compound 0.0316 µM, first compound 0.0316 µM
[8] = second compound 0.0316 µM, first compound 0.1 µM
[9] = second compound 0.0316 µM, first compound 0.316 µM
[10] = second compound 0.0316 µM, first compound 1 µM
[11] = second compound 0.1 µM, first compound 0.0316 µM
[12] = second compound 0.1 µM, first compound 0.1 µM
[13] = second compound 0.1 µM, first compound 0.316 µM
[14] = second compound 0.1 µM, first compound 1 µM
[15] = second compound 0.316 µM, first compound 0.0316 µM
[16] = second compound 0.316 µM, first compound 0.1 µM
[17] = second compound 0.316 µM, first compound 0.316 µM
[18] = second compound 0.316 µM, first compound 1 µM
[19] = second compound 1 µM, first compound 0.0316 µM
[20] = second compound 1 µM, first compound 0.1 µM
[21] = second compound 1 µM, first compound 0.316 µM
[22] = second compound 1 µM, first compound 1 µM
[23] = second compound 3.16 µM, first compound 0.0316 µM
[24] = second compound 3.16 µM, first compound 0.1 µM
[25] = second compound 3.16 µM, first compound 0.316 µM
[26] = second compound 3.16 µM, first compound 1 µM
[27] = second compound 10 µM, first compound 0.0316 µM
[28] = second compound 10 µM, first compound 0.1 µM
[29] = second compound 10 µM, first compound 0.316 µM
[30] = second compound 10 µM, first compound 1 µM
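Also: spheroids exposed to compounds for 7 days.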
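For viability, T/C in this document: 100% = DMSO vehicle-treated spheroids.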

COc1cccc(OCCCN)c1-c1cc(Nc2cnc(C#N)cn2)n[nH]1 + Nc1ccc(C#CCN(C(=O)Cc2ncc(C(F)(F)F)cc2C(F)(F)F)c2ccc(F)cc2)nn1
5.69 nM: IC50 [4]
active: viability, T/C [7] 5.45% | viability, T/C [8] 4.83% | viability, T/C [9] 4.44% | viability, T/C [10] 3.65% | viability, T/C [11] 4.6% | viability, T/C [12] 5.23% | viability, T/C [13] 3.56% | viability, T/C [14] 3% | viability, T/C [15] 4.16% | viability, T/C [16] 5.93% | viability, T/C [17] 4.07% | viability, T/C [18] 3.09% | viability, T/C [19] 5.79% | viability, T/C [20] 4.2% | viability, T/C [21] 4.04% | viability, T/C [22] 2.8% | viability, T/C [23] 5.75% | viability, T/C [24] 5.62% | viability, T/C [25] 3.65% | viability, T/C [26] 3.11% | viability, T/C [27] 5.81% | viability, T/C [28] 3.93% | viability, T/C [29] 4.01% | viability, T/C [30] 3.39%
5.44 nM: IC50 [1]
5.41 nM: IC50 [5]
inactive: viability, T/C (second compound 0.0316 µM, first compound 0.00316 µM) 82.4% | viability, T/C (second compound 0.0316 µM, first compound 0.01 µM) 13.8% | viability, T/C (second compound 0.1 µM, first compound 0.00316 µM) 77.1% | viability, T/C (second compound 0.1 µM, first compound 0.01 µM) 14.6% | viability, T/C (second compound 0.316 µM, first compound 0.00316 µM) 87% | viability, T/C (second compound 0.316 µM, first compound 0.01 µM) 14.7% | viability, T/C (second compound 1 µM, first compound 0.00316 µM) 84.7% | viability, T/C (second compound 1 µM, first compound 0.01 µM) 16.7% | viability, T/C (second compound 3.16 µM, first compound 0.00316 µM) 84% | viability, T/C (second compound 3.16 µM, first compound 0.01 µM) 11.2% | viability, T/C (second compound 10 µM, first compound 0.00316 µM) 87.2% | viability, T/C (second compound 10 µM, first compound 0.01 µM) 14.5%
5.7 nM: IC50 [3] | IC50 [6]
5.2 nM: IC50 [2]

CCc1c2c(nc3ccc(O)cc13)-c1cc3c(c(=O)n1C2)COC(=O)[C@]3(O)CC
< 3.16 nM: IC50 (curve of compound)
inactive: viability, T/C (compound 0.00316 µM) 19.4% and 20.1% and 25.3% | viability, T/C (compound 0.01 µM) 16.5% and 16.4% and 16.3% | viability, T/C (compound 0.0316 µM) 13.7% and 12.4% and 11.8%
active: viability, T/C (compound 0.1 µM) 7.6% and 9.24% and 7.39% | viability, T/C (compound 0.316 µM) 6.4% and 5.1% and 5.47% | viability, T/C (compound 1 µM) 3.09% and 2.77% and 3.28%

CCCS(=O)(=O)Nc1ccc(F)c(C(=O)c2c[nH]c3ncc(-c4ccc(Cl)cc4)cc23)c1F + COC1C(OC(N)=O)C(O)C(Oc2ccc3c(O)c(NC(=O)c4ccc(O)c(CC=C(C)C)c4)c(=O)oc3c2C)OC1(C)C
3340 nM: IC50 [2]
4390 nM: IC50 [3]
3520 nM: IC50 [6]
2900 nM: IC50 [4]
2410 nM: IC50 [1]
5230 nM: IC50 [5]
inactive: viability, T/C [7] 76% | viability, T/C [8] 77% | viability, T/C [9] 73.6% | viability, T/C [10] 73.4% | viability, T/C (second compound 0.0316 µM, first compound 3.16 µM) 42.9% | viability, T/C (second compound 0.0316 µM, first compound 10 µM) 16.6% | viability, T/C [11] 76.6% | viability, T/C [12] 74.8% | viability, T/C [13] 43.4% | viability, T/C [14] 86.7% | viability, T/C (second compound 0.1 µM, first compound 3.16 µM) 51.9% | viability, T/C (second compound 0.1 µM, first compound 10 µM) 12.8% | viability, T/C [15] 48.3% | viability, T/C [16] 71.4% | viability, T/C [17] 58.7% | viability, T/C [18] 71.2% | viability, T/C (second compound 0.316 µM, first compound 3.16 µM) 68.5% | viability, T/C (second compound 0.316 µM, first compound 10 µM) 15.9% | viability, T/C [19] 86.4% | viability, T/C [20] 80.6% | viability, T/C [21] 48.5% | viability, T/C [22] 74.6% | viability, T/C (second compound 1 µM, first compound 3.16 µM) 51.6% | viability, T/C (second compound 1 µM, first compound 10 µM) 13% | viability, T/C [23] 76.3% | viability, T/C [24] 76.8% | viability, T/C [25] 89.3% | viability, T/C [26] 79.1% | viability, T/C (second compound 3.16 µM, first compound 3.16 µM) 76.3% | viability, T/C (second compound 3.16 µM, first compound 10 µM) 16.1% | viability, T/C [27] 82% | viability, T/C [28] 86.4% | viability, T/C [29] 62.1% | viability, T/C [30] 86.4% | viability, T/C (second compound 10 µM, first compound 3.16 µM) 53.8% | viability, T/C (second compound 10 µM, first compound 10 µM) 13%
